One assay has as its system Botrytis. Briefly: Combination with herbicides, Botrytis agar plate test. Type of assay: cell-based, Botrytis cinerea. Particulars: herbicide applied singly.
In another assay the test system is Staphylococcus aureus. Conditions: Matsueda et al.; cited from earlier work.
A further assay relates to certain microorganisms. Conditions: Matsueda et al. 1980; cited from earlier work.
Another assay has as its system E. coli. Particulars: Matsueda et al.; cited from earlier work.
The test system of the next assay is Bacillus subtilis. Conditions: Matsueda et al.; cited from earlier work.
The next assay relates to Pseudomonas aeruginosa. Particulars: Matsueda et al.; cited from earlier work.
A further assay relates to Candida japonica. Conditions: Matsueda et al.; cited from earlier work.
The test system of a further assay is Microsporum canis. Put plainly: Effect of the fungicide on dermatophytes (agar incorporation). Type of assay: cell-based. Conditions: 120 h, pH 7.1, 25°, 5 days, read-out: Minimum Inhibitory Concentration, MIC. The method, then: (§1) These were recent clinical isolates and were cultivated at 25° C. on agar containing the following ingredients in grams per liter:
(§2) Mycelia from the 3 fungi were disintegrated with sterile glass beads in sterile water and 1 drop applied to the center petri dishes containing the same agar as above but to which was added Phaeoramularia fungicide. The fungicide was added at a concentration of from 0.5 μg/ml to 5 μg/ml of the eluate described under "Extraction of the active principle." Griseofulvin was used in comparison. Controls were prepared with the same agar but devoid of fungicide. Five (5) replicates were made for each test.

The test system of the next assay is Trichophyton rubrum. Described as above. Particulars: 120 h, pH 7.1, 25°, 5 days, read-out: Minimum Inhibitory Concentration, MIC. Type of assay: cell-based. The method, then: as §1, §2
A further assay relates to T. mentagrophytes. The assay is described as above. The class given is cell-based. Particulars: Trichophyton mentagrophytes, 120 h, pH 7.1, 25°, 5 days, read-out: Minimum Inhibitory Concentration, MIC. Here is the method: as §1, §2

This is an account of results in patent US5288624A, “Cercosporal fungicide compositions and methods of use” (priority 1987, dated 1994).

Values after ≈ are worked out from the molar mass of the structure shown.

`CCNc1nc(Cl)nc(NC(C)C)n1` [Atrazine]: in the assay with Botrytis, the “effect of herbicide on Botrytis” value is recorded as “no effect”.
On the same count and under the same terms, for `COc1nc(C)nc(NC(=O)NS(=O)(=O)c2ccccc2Cl)n1` [Chlorsulfuron] the value was “no effect”; for `CCNc1nc(Cl)nc(NCC)n1` [Simazine], “no effect”.
For `COc1c(CC(C)O)c2c3c(CC(C)O)c(OC)c(=O)c4c(O)cc5c(c6c(cc(O)c(c1=O)c62)OCO5)c43` (stereo not drawn) [cercosporin], the inhibition of growth entry with Staphylococcus aureus, in the assay on E. coli, with Bacillus subtilis, with Pseudomonas aeruginosa and in the assay on Candida japonica was “inhibit the growth” throughout. Further, in the assay on certain microorganisms, the “inhibitory effect on certain microorganisms” value is recorded as “inhibitory effect”.
As to `COC1=CC(=O)C[C@@H](C)[C@]12Oc1c(Cl)c(OC)cc(OC)c1C2=O` [griseofulvin], the MIC is 3 µg/mL (≈ 8.5 µM) in the assay on Microsporum canis, 1.5 µg/mL (≈ 4.25 µM) in the assay with Trichophyton rubrum and 10 µg/mL (≈ 28.3 µM) in the assay on T. mentagrophytes.
